According to the supplement of paper PMC10307832:

Columns and labels:
Experiment in all cases: relative viability (nuclei count vs DMSO), 5 days (fraction); higher = more cells survive
Erlotinib + Alpelisib = compound: C#Cc1cccc(Nc2ncnc3cc(OCCOC)c(OCCOC)cc23)c1 [Erlotinib] + Cc1nc(NC(=O)N2CCC[C@H]2C(N)=O)sc1-c1ccnc(C(C)(C)C(F)(F)F)c1 [Alpelisib] (partner 2 µM)
Summary of the method: (§1)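 Relative viability was taken as the ratio of nuclei in treated wells to nuclei in vehicle wells. Lung cancer cell lines in 1536-well plates received compounds by pin tool one day after seeding, either one drug alone or a fixed anchor-drug dose plus five library-drug doses (not always all listed) in √10 steps. Nuclei were counted on 4× images after 5 days of treatment, and values are medians of duplicate plates.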

AT9283 + Foretinib = compound: O=C(Nc1c[nH]nc1-c1nc2ccc(CN3CCOCC3)cc2[nH]1)NC1CC1 [AT9283] + COc1cc2c(Oc3ccc(NC(=O)C4(C(=O)Nc5ccc(F)cc5)CC4)cc3F)ccnc2cc1OCCCN1CCOCC1 [Foretinib] (partner 0.25 µM)
Summary of the method: as §1

AT9283 + AZD7762 = compound: O=C(Nc1c[nH]nc1-c1nc2ccc(CN3CCOCC3)cc2[nH]1)NC1CC1 [AT9283] + NC(=O)Nc1cc(-c2cccc(F)c2)sc1C(=O)N[C@H]1CCCNC1 [AZD7762] (partner 0.2 µM)
Summary of the method: as §1

AT9283 + Pemetrexed = compound: O=C(Nc1c[nH]nc1-c1nc2ccc(CN3CCOCC3)cc2[nH]1)NC1CC1 [AT9283] + Nc1nc2[nH]cc(CCc3ccc(C(=O)N[C@@H](CCC(=O)O)C(=O)O)cc3)c2c(=O)[nH]1 [Pemetrexed] (partner 0.2 µM)
Summary of the method: as §1

AT9283 + Vorinostat = compound: O=C(Nc1c[nH]nc1-c1nc2ccc(CN3CCOCC3)cc2[nH]1)NC1CC1 [AT9283] + O=C(CCCCCCC(=O)Nc1ccccc1)NO [Vorinostat] (partner 1 µM)
Summary of the method: as §1

Row | Cell Line | relative viability (Erlotinib + Alpelisib; first compound 0.02 µM) | relative viability (Erlotinib + Alpelisib; first compound 0.2 µM) | relative viability (Erlotinib + Alpelisib; first compound 0.6325 µM) | relative viability (AT9283 + Foretinib; first compound 0.003 µM) | relative viability (AT9283 + Foretinib; first compound 0.03 µM) | relative viability (AT9283 + Foretinib; first compound 0.09487 µM) | relative viability (AT9283 + Foretinib; first compound 0.3 µM) | relative viability (AT9283 + AZD7762; first compound 0.003 µM) | relative viability (AT9283 + AZD7762; first compound 0.03 µM) | relative viability (AT9283 + AZD7762; first compound 0.09487 µM) | relative viability (AT9283 + AZD7762; first compound 0.3 µM) | relative viability (AT9283 + Pemetrexed; first compound 0.003 µM) | relative viability (AT9283 + Pemetrexed; first compound 0.03 µM) | relative viability (AT9283 + Pemetrexed; first compound 0.09487 µM) | relative viability (AT9283 + Pemetrexed; first compound 0.3 µM) | relative viability (AT9283 + Vorinostat; first compound 0.003 µM) | relative viability (AT9283 + Vorinostat; first compound 0.03 µM) | relative viability (AT9283 + Vorinostat; first compound 0.09487 µM) | relative viability (AT9283 + Vorinostat; first compound 0.3 µM) | relative viability (Erlotinib + Alpelisib; first compound 2 µM)
1 | 201T | 0.999 | 0.968 | 0.966 | 1.12 | 1.07 | 0.274 | 0.247 | 0.609 | 0.527 | 0.45 | 0.31 | 0.292 | 0.297 | 0.279 | 0.306 | 0.844 | 0.653 | 0.471 | 0.304 | 
2 | A549 | 0.709 | 0.68 | 0.728 | 0.87 | 0.118 | 0.131 | 0.0419 |  |  |  |  |  |  |  |  |  |  |  |  | 0.595
3 | A-427 | 1 | 1.04 | 1.12 | 1.01 | 1.04 | 0.24 | 0.216 | 0.675 | 0.306 | 0.227 | 0.269 | 0.979 | 0.767 | 0.272 | 0.299 | 0.902 | 0.471 | 0.269 | 0.323 | 1.05
4 | ABC-1 | 1.09 | 1.2 | 1.01 | 1.02 | 0.15 | 0.178 | 0.153 | 0.83 | 0.365 | 1.18 | 0.229 |  |  |  |  | 1.05 | 0.373 | 0.359 | 0.258 | 0.92
5 | BEN | 1.08 | 1.01 | 1.26 | 0.47 | 0.65 | 0.185 | 0.19 | 0.595 | 0.62 | 0.327 | 0.321 | 0.622 | 0.692 | 0.361 | 0.365 | 0.515 | 0.49 | 0.33 | 0.324 | 
6 | CAL-12T | 1.16 | 0.859 | 0.56 | 1.1 | 0.773 | 0.414 | 0.283 | 0.584 | 0.502 | 0.347 | 0.189 | 1.36 | 1.03 | 0.572 | 0.31 | 0.804 | 0.394 | 0.237 | 0.166 | 0.371
7 | COR-L23 | 0.84 | 0.719 | 0.836 | 1.01 | 0.623 | 0.216 | 0.182 |  |  |  |  | 0.213 | 0.165 | 0.137 | 0.137 | 0.443 | 0.119 | 0.0932 | 0.0899 | 0.553
8 | COR-L 105 | 1.09 | 0.659 | 0.477 | 0.847 | 0.673 | 0.249 | 0.361 |  |  |  |  | 1.08 | 0.699 | 0.341 | 0.422 | 0.839 | 0.343 | 0.383 | 0.321 | 0.243
9 | Calu-6 | 0.983 | 1.06 | 1.04 | 0.728 | 0.203 | 0.214 | 0.24 |  |  |  |  |  |  |  |  |  |  |  |  | 0.909
10 | ChaGo-K-1 |  |  |  | 0.918 | 0.521 | 0.319 | 0.268 | 0.88 | 0.685 | 0.404 | 0.222 | 0.239 | 0.247 | 0.188 | 0.166 | 0.662 | 0.447 | 0.325 | 0.216 | 
11 | EBC-1 | 0.792 | 0.772 | 0.757 | 0.107 | 0.0785 | 0.0877 | 0.075 |  |  |  |  |  |  |  |  |  |  |  |  | 0.792
12 | EKVX | 0.835 | 0.403 | 0.315 | 0.775 | 0.728 | 0.626 | 0.257 | 0.647 | 0.56 | 0.584 | 0.289 | 0.436 | 0.352 | 0.211 | 0.204 | 0.673 | 0.545 | 0.302 | 0.287 | 0.116
13 | EMC-BAC-2 | 0.762 | 0.649 | 0.685 | 1.04 | 0.305 | 0.289 | 0.208 | 1.04 | 0.411 | 0.349 | 0.281 | 0.466 | 0.414 | 0.367 | 0.266 | 0.28 | 0.19 | 0.159 | 0.146 | 0.542
14 | EPLC-272H | 1.01 | 0.979 | 0.818 | 0.622 | 0.217 | 0.12 | 0.123 | 0.139 | 0.23 | 0.104 | 0.144 | 0.358 | 0.212 | 0.177 | 0.138 | 0.467 | 0.167 | 0.206 | 0.139 | 0.679
15 | H3255 | 0.674 | 0.34 | 0.16 | 0.924 | 0.794 | 0.734 | 0.183 | 0.832 | 0.746 | 0.548 | 0.211 | 0.544 | 0.553 | 0.46 | 0.238 | 0.818 | 0.907 | 0.733 | 0.298 | 0.13
16 | HARA | 0.946 | 0.619 | 0.646 | 0.79 | 0.151 | 0.122 | 0.109 | 0.315 | 0.232 | 0.0942 | 0.158 | 0.217 | 0.239 | 0.167 | 0.166 | 0.365 | 0.453 | 0.122 | 0.0962 | 0.256
17 | HCC-15 | 0.897 | 0.844 | 0.913 | 1.02 | 0.397 | 0.161 | 0.19 | 1.26 | 1.19 | 0.926 | 0.255 | 0.223 | 0.208 | 0.143 | 0.159 | 0.873 | 0.426 | 0.165 | 0.166 | 0.77
18 | HCC-44 | 0.821 | 0.698 | 0.909 |  |  |  |  | 1.04 | 1.05 | 1.02 | 0.971 | 0.629 | 0.666 | 0.564 | 0.694 | 1.07 | 1.05 | 0.571 | 0.567 | 0.707
